The values that follow are results of earlier work, collected in publication PMC11258486, “Phase 1 dose escalation study of the MDM2 inhibitor milademetan as monotherapy and in combination with azacitidine in patients with myeloid malignancies” (Cancer Medicine, 2024).

In one data set the test system is AML. Set-up: method as in PMID 26459177. The conditions noted are these: phase 1 clinical study in AML; cited from earlier work.
A further data set has as its system relapsed/refractory AML. Also on record: method as in PMID 35413116. The following applies: relapsed/refractory AML and wild‐type p53; cited from earlier work.

For `CCOc1cc(C(C)(C)C)ccc1C1=N[C@@](C)(c2ccc(Cl)cc2)[C@@](C)(c2ccc(Cl)cc2)N1C(=O)N1CCN(CCCS(C)(=O)=O)CC1` [RG7112], the response rate in the data set on AML is ~ 25%.

For `Nc1ccn([C@@H]2O[C@H](CO)[C@@H](O)[C@@H]2O)c(=O)n1` [cytarabine], the overall response rate with relapsed/refractory AML is recorded as 22%.
